Patent US20040152994A1, “Liver function test” (priority 2001, published 2004)

Tested on: hepatic glycine conjugation
Conditions: in vivo
Method: The test is carried out in the morning on an empty stomach after an overnight fast.
To equilibrate the body's glycine pool, an oral bolus of 3 g of glycine dissolved in 200 ml of water is given 1 hour prior to tracer administration.
At t=0 min, a weight adjusted dose of [^13C−1]-glycine (eg. 150 mg for 44.5 to 95.2 kg body weight) was given orally. Breath samples are taken subsequently every 10 minutes over a period of 300 minutes.
At t=160 min, a second dose of [^13C−1]-glycine was given, followed by three equal dozes of sodium benzoate (eg. 284.2 mg) at 170, 180 and 190 minutes.
Breath samples are measured for ^13CO2 content above base line, ie. the mean of 3 pre-test samples. Time to peak of ^13CO2 exhalation, ^13CO2 exhalation in percentage of given dose [% dose/hour] and cumulative ^13CO2 exhalation over time are determined. Mathematical modelling of the various curves is used to de-convolute the dose recovery curves of parts A and B.
The breath test consisted of two parts, A and B, that were at first carried out on 2 consecutive days and later combined into an one-day protocol.
Part A; After an overnight fast, subjects were given orally a weight adjusted dose of the tracer ^13C-glycine dissolved in water
Part B: After an, overnight fast, subjects were given orally the same amount of tracer plus an optimised amount of sodium benzoate.
For the one-day protocol, part B commenced 130 min after the start of part A.
Breath samples were collected in 10 min intervals.
10 volunteers (5 women, 5 men) with no medical history of liver problems were used as control group.
9 in-patients (6 women, 3 men) with varying stages of liver failure and different disease etiology were tested. Ethical approval for this ^13CO2-breath test, study was sought and obtained from the Tayside Healthboard Ethics Committee.

## NC[13C](=O)O [^13C-glycine, [^13C−1]-glycine]
  Time to peak PDR in patients compared to the control group: significantly delayed
  highest GCa-value (apparent glycine conjugation) in patients: 23.26%
  mean PDRm ratio: 0.59
